According to patent publication US9085575B2, “Tri- and tetracyclic pyrazolo[3,4-B]pyridine compounds as antineoplastic agent” (PIERRE FABRE MEDICAMENT, priority 2011, dated 2015):
Read-outs that look alike come from different tables or passages of the source.

How the values were obtained:
ALK = ALK (Homo sapiens, UniProt Q9UM73); assay: Test for measurement of ALK inhibition (ELISA, GST-PLCγ1 substrate, luminescence); format: biochemical
Description: Test for Measurement of ALK Inhibition
A ViewPlate microplate (Packard) is incubated with 0.1 mg/ml GST-PLCγ1 substrate (purified recombinant form) in phosphate buffer (PBS, pH 7.4) (100 μl/well) for one hour under stirring. The plate is then saturated with blocking solution comprising 5% bovine serum albumin (BSA) (Sigma) in PBS buffer, pH 7.4.
After having added the inhibitor at the desired final concentration (typical range between 30 μM and 10 nM), the reaction is carried out by adding 180 ng/ml ALK to a reaction buffer comprised of 13 mM Tris, pH 7.5 (Sigma); 6.5 mM MgCl2 (Merck); 0.65 mM dithiothreitol (DTT) (Acros); 39 mM sodium β-glycerophosphate (TCI); 0.65 mM sodium orthovanadate (Sigma); and 250 μM ATP (Sigma). Incubation is carried out for 30 minutes at 30° C. under stirring.
After three washings under stirring in 0.1% PBS/Tween-20 buffer (Sigma), an anti-phosphotyrosine antibody, coupled with HRP (UBI) diluted to 1/1000 in 5 mg/ml PBS/BSA buffer, is incubated for one hour with stirring. After three new washings in 0.1% PBS/Tween-20, the wells are incubated for two minutes with 100 μl of SuperSignal ELISA mixture (Pierce).
The signal is read in luminescence mode using a luminometer (SpectraMax M5e, Molecular Devices).

Karpas 299 cells = assay: Test for measurement of cell proliferation inhibition (Karpas 299), ATPlite; format: cell-based; conditions: Homo sapiens, Karpas 299 cell line, 72 hours
Description: Test for Measurement of Cell Prolifearation Inhibition (Karpas 299)
The antiproliferative activity of the compounds according to the invention has been measured by the ATPlite technique (Perkin Ekmer).
Human cells of non-adherent anaplasic large cell lymphoma (Karpas 299) are seeded in 96-well plates (300,000 cells/ml) on day 1, at a concentration compatible with a logarithmic growth for 72 hours necessary for the evaluation of the compounds according to the invention. All the cells are treated on day 1 and then placed in an incubator at 37° C., under a 5% CO2 atmosphere. Cell viability is evaluated on day 4 by dosing the emitted ATP, which is a characteristic of viable cells. IC50s are determined by a non linear regression based on a sigmoidal model of dose/response relationship, the Hill coefficient being let variable, performed with the GraphPad software according to the algorithm provided.

[1] = enzymatic IC50 on ALK, 250 μM ATP, class symbols, read-out: IC50 (ALK)
[2] = comparative tests, read-out: Alk enzymatic inhibition (IC50)

Chain of ALK (Q9UM73 19-1620): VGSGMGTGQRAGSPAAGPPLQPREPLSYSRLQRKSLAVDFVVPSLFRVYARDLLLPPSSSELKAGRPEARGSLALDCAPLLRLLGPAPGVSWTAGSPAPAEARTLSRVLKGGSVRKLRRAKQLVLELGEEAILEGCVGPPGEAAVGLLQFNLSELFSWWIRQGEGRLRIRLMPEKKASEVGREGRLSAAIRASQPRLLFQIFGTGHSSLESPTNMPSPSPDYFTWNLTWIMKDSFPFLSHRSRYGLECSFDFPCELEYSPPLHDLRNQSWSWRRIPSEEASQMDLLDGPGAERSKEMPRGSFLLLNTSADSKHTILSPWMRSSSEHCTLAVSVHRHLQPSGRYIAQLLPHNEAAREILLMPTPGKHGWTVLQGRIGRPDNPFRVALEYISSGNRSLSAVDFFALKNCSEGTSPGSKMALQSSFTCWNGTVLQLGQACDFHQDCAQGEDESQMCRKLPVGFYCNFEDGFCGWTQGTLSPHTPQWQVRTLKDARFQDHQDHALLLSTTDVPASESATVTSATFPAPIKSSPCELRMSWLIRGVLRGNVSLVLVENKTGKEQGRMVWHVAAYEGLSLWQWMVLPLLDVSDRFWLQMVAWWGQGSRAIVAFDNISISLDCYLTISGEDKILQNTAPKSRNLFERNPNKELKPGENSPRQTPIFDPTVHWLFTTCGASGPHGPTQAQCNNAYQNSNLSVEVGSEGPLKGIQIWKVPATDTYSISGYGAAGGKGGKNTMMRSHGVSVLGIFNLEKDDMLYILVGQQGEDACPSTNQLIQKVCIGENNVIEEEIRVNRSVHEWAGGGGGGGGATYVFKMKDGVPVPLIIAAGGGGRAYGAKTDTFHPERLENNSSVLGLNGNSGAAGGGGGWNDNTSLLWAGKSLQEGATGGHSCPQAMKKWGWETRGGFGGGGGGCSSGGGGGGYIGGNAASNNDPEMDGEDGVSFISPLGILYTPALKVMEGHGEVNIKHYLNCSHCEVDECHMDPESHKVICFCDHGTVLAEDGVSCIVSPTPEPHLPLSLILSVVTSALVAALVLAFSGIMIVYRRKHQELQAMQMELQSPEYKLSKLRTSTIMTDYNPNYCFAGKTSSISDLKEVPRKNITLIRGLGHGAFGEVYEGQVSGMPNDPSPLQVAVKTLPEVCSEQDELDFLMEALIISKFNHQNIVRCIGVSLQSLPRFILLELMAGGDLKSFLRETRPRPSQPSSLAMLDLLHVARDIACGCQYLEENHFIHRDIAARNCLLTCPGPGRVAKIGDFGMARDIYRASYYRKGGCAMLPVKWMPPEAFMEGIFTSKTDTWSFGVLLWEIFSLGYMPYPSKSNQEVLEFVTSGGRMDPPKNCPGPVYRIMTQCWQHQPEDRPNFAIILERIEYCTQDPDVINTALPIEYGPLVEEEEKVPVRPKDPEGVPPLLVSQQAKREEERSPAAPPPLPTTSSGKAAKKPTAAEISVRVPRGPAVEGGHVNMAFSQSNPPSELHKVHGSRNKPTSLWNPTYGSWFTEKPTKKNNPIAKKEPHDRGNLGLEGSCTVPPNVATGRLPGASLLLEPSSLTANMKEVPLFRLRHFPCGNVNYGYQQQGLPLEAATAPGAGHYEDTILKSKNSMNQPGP

Row | Structure (SMILES) | IC50 (ALK; [1]) [nM] | IC50 (Karpas 299 cells) [nM] | IC50 (ALK; [2]) [nM]
1 | COc1ccc(-c2nc3[nH]nc(N)c3c3c2c(=O)[nH]c2cc(N4CCNCC4)ccc23)cc1 [Compound 51] | < 100 | – | –
2 | Cc1n[nH]c2nc(-c3cc(F)cc(F)c3)c3c(=O)[nH]c4cc(N5CCNCC5)ccc4c3c12 [Compound 31] | 1000 to 10000 | – | –
3 | Cc1n[nH]c2nc(-c3ccc(O)cc3)c3c(=O)[nH]c4ccccc4c3c12 [Compound 02] | < 100 | 168 | 2.5
4 | Cc1n[nH]c2nc(-c3ccc(O)cc3)c3c(=O)[nH]c4cc(N5CCNCC5)ccc4c3c12 [Compound 04] | < 100 | – | –
5 | O=c1[nH]c2ccccc2c2c1c(-c1ccc(O)cc1)nc1[nH]nc(-c3ccc(N4CCNCC4)cc3)c12 [Compound 05] | < 100 | – | –
6 | CC(=O)Oc1ccc(-c2nc3c(c(C)nn3C(C)=O)c3c2c(=O)[nH]c2cc(N4CCNCC4)ccc23)cc1 [Compound 49] | < 100 | – | –
7 | CCn1c(=O)c2c(-c3ccc(O)cc3)nc3[nH]nc(C)c3c2c2ccc(N3CCNCC3)cc21 [Compound 20] | < 100 | – | –
8 | CCn1c(=O)c2c(-c3cc(F)cc(F)c3)nc3[nH]nc(N)c3c2c2ccc(N3CCNCC3)cc21 [Compound 55] | 100 to 1000 | – | –
9 | O=c1[nH]c2cc(N3CCNCC3)ccc2c2c1c(-c1ccc(O)cc1)nc1[nH]nc(-c3ccco3)c12 [Compound 16] | < 100 | – | –
10 | CCOC(=O)Oc1ccc(-c2nc3c(c(C)nn3C(=O)OCC)c3c2c(=O)[nH]c2cc(N4CCN(C(=O)OCC)CC4)ccc23)cc1 [Compound 48] | 1000 to 10000 | – | –
11 | CC(=O)Nc1n[nH]c2nc(-c3ccc(O)cc3)c3c(=O)[nH]c4ccccc4c3c12 [Compound 23] | < 100 | – | –
12 | Cc1n[nH]c2nc(-c3ccc(O)cc3)c3c(=O)[nH]c4cc(N5CCN(C6CCN(C)CC6)CC5)ccc4c3c12 [Compound 21] | < 100 | – | –
13 | Cc1nn(C(=O)OC(C)(C)C)c2nc(-c3ccc(OC(=O)C(C)(C)C)cc3)c3c(=O)[nH]c4cc(N5CCN(C(=O)OC(C)(C)C)CC5)ccc4c3c12 [Compound 50] | 100 to 1000 | – | –
14 | Nc1n[nH]c2nc(-c3cc(F)cc(F)c3)c3c(=O)[nH]c4cc(N5CCNCC5)ccc4c3c12 [Compound 36] | 1000 to 10000 | – | –
15 | COc1ccc(-c2nc3[nH]nc(N)c3c3c2c(=O)[nH]c2ccc(N4CCNCC4)cc23)cc1 [Compound 22] | 1000 to 10000 | – | –
16 | CCOc1cc(F)cc(-c2nc3[nH]nc(C)c3c3c2c(=O)n(CC)c2cc(N4CCNCC4)ccc32)c1 [Compound 33] | < 100 | – | –
17 | CCn1cc(-c2ccc(N3CCNCC3)cc2)c2c(c(-c3ccc(O)cc3)nc3[nH]nc(N)c32)c1=O [Compound 54] | 1000 to 10000 | – | –
18 | COc1ccc(-c2nc3[nH]nc(C)c3c3c2c(=O)oc2ccccc23)cc1 [Compound 08] | 1000 to 10000 | – | –
19 | Cc1n[nH]c2nc(-c3ccc(O)cc3)c3c(=O)oc(-c4ccccc4)cc3c12 [Compound 28] | 100 to 1000 | – | –
20 | Nc1n[nH]c2nc(-c3ccc(O)cc3F)c3c(=O)[nH]c4ccccc4c3c12 [Compound 38] | < 100 | – | –
21 | Cc1n[nH]c2nc(-c3ccc(O)cc3)c3c(c12)CCNC3=O [Compound 53] | < 100 | – | –
22 | Cc1n[nH]c2nc(-c3ccc(O)cc3)c3c(=O)oc4ccccc4c3c12 [Compound 09] | 100 to 1000 | – | –
23 | CCOc1nc2cc(N3CCNCC3)ccc2c2c1c(-c1ccc(O)c(C(F)(F)F)c1)nc1[nH]nc(C)c12 [Compound 47] | 100 to 1000 | – | –
24 | Nc1n[nH]c2nc(-c3ccc(O)cc3)c3c(=O)[nH]c4cc(N5CCNCC5)ccc4c3c12 [Compound 32] | < 100 | – | –
25 | Cc1n[nH]c2nc(-c3ccc(O)cc3)c3c(=O)n(CCN4CCNCC4)c4ccccc4c3c12 [Compound 15] | 100 to 1000 | – | –
26 | CCn1ccc2c(c(-c3ccc(O)cc3)nc3[nH]nc(C)c32)c1=O [Compound 44] | 1000 to 10000 | – | –

Row | Structure (SMILES) | IC50 (ALK; [1]) [nM] | IC50 (Karpas 299 cells) [nM] | IC50 (ALK; [2]) [nM]
27 | Cc1cc2c(o1)-c1c(c(-c3ccc(O)cc3)nc3[nH]nc(C)c13)C2=O [Compound 01] | < 100 | – | –
28 | Cc1n[nH]c2nc(-c3ccc(O)cc3)c3c(=O)[nH]c4cc(N5CCC(N)CC5)ccc4c3c12 [Compound 18] | < 100 | – | –
29 | Nc1n[nH]c2nc(-c3ccc(O)cc3)c3c(=O)[nH]c4ccc(N5CCNCC5)cc4c3c12 [Compound 25] | < 100 | – | –
30 | CCn1c(=O)c2c(-c3ccc(O)cc3)nc3[nH]nc(N)c3c2c2ccc(N3CCNCC3)cc21 [Compound 37] | < 100 | – | –
31 | CN1CCN(c2ccc(C(=O)Nc3n[nH]c4nc(-c5ccc(O)cc5)c5c(=O)[nH]c6ccccc6c5c34)cc2)CC1 [Compound 52] | < 100 | – | –
32 | Nc1n[nH]c2nc(-c3ccc(O)cc3)c3c(=O)[nH]c4ccccc4c3c12 [Compound 24] | < 100 | – | –
33 | Cc1n[nH]c2nc(-c3ccc(O)c(C(=O)O)c3)c3c(=O)[nH]c4cc(N5CCNCC5)ccc4c3c12 [Compound 27] | 1000 to 10000 | – | –
34 | Cc1n[nH]c2nc(-c3ccc(O)cc3)c3c(=O)[nH]c4cc(N5CC[C@@H](N)C5)ccc4c3c12 [Compound 11] | < 100 | – | –
35 | Cc1n[nH]c2nc(-c3ccc(O)cc3)c3cnc4ccccc4c3c12 [Compound 06] | – | 1000 | 35
36 | Cc1n[nH]c2nc(-c3ccc(O)cc3)c3c(=O)n(CCCN(C)C)c4ccccc4c3c12 [Compound 07] | < 100 | – | –
37 | CCn1c(=O)c2c(-c3ccc(O)c(C(F)(F)F)c3)nc3[nH]nc(C)c3c2c2ccc(N3CCNCC3)cc21 [Compound 46] | < 100 | – | –
38 | Cc1n[nH]c2nc(-c3ccc(O)cc3)c3c(=O)n(CCCN(C)C)c4cc(N5CCNCC5)ccc4c3c12 [Compound 12] | < 100 | – | –
39 | Cn1ccc2c(c(-c3cc(F)cc(F)c3)nc3[nH]nc(N)c32)c1=O [Compound 45] | 1000 to 10000 | – | –
40 | Nc1n[nH]c2nc(-c3ccc(O)cc3)c3c(=O)[nH]ccc3c12 [Compound 39] | 1000 to 10000 | – | –
41 | Cc1n[nH]c2nc(-c3ccc(O)cc3)c3ccccc3c12 [Comparative compound 98, reference compound] | – | 4040 | 70
42 | Cc1n[nH]c2nc(-c3ccc(O)cc3)c3c(=O)n(CCCN4CC[C@@H](N)C4)c4ccccc4c3c12 [Compound 14] | < 100 | – | –
43 | Nc1n[nH]c2nc(-c3ccc(O)cc3)c3c(=O)n(O)c4ccccc4c3c12 [Compound 42] | < 100 | – | –
44 | Cc1n[nH]c2nc(-c3ccc(O)c(C(F)(F)F)c3)c3c(=O)[nH]c4cc(N5CCNCC5)ccc4c3c12 [Compound 41] | 100 to 1000 | – | –
45 | O=C1c2cc(N3CCNCC3)ccc2-c2c1c(-c1c(F)ccc(F)c1F)nc1[nH]nc(-c3cccs3)c21 [Compound 03] | 1000 to 10000 | – | –
46 | Cc1n[nH]c2nc(-c3ccc(O)cc3)c3c(=O)n(CCCN4CCN(C)CC4)c4ccccc4c3c12 [Compound 10] | < 100 | – | –
47 | Cc1n[nH]c2nc(-c3ccc(O)cc3)c3c(=O)[nH]ccc3c12 [Compound 35] | 1000 to 10000 | – | –
48 | Cc1n[nH]c2nc(-c3ccc(O)cc3)c3c(=O)[nH]c4cc(OCCCN5CCNCC5)ccc4c3c12 [Compound 13] | < 100 | – | –
49 | CC(=O)Oc1ccc(-c2nc3[nH]nc(C)c3c3c2c(=O)[nH]c2cc(N4CCNCC4)ccc23)cc1 [Compound 17] | < 100 | – | –
50 | Cc1n[nH]c2nc(-c3cc(O)cc(F)c3)c3c(=O)[nH]c4cc(N5CCNCC5)ccc4c3c12 [Compound 30] | < 100 | – | –
51 | CCOc1ccc(-c2nc3[nH]nc(C)c3c3c2c(=O)[nH]c2cc(N4CCNCC4)ccc23)cc1 [Compound 19] | < 100 | – | –
